From BigSolDB 2.1

C[C@@H]1CC[C@@]2(OC1)O[C@H]1C[C@H]3[C@@H]4CC=C5C[C@@H](O)CC[C@]5(C)[C@H]4CC[C@]3(C)[C@H]1[C@@H]2C
solubility (mole fraction)
Settings	293.2 K	298.2 K	303.2 K	308.2 K	313.2 K	318.2 K	323.2 K	328.2 K
in 2-aminoethanol	0.00142	0.00218	0.0042	0.00625	0.00807	0.00914	0.011	0.0132
in DMF	0.00113	0.00159	0.00232	0.00369	0.00461	0.00587	0.00794	0.0116
in NMP	0.0118	0.0128	0.0138	0.0148	0.0163	0.0178	0.0196	0.0219
in acetonitrile	0.00359	0.00529	0.00675	0.00894	0.0125	0.0151	0.0188	0.0221
in morpholine-4-carbaldehyde	0.00663	0.00809	0.00976	0.012	0.0147	0.0162	0.0181	0.0198
in n-dodecane	0.000266	0.000351	0.000439	0.000542	0.000631	0.000743	0.000898	0.00105
in n-hexadecane	0.000256	0.000373	0.000465	0.000626	0.000949	0.00131	0.00171	0.00244
in n-nonanol	0.0067	0.00825	0.00965	0.011	0.0123	0.0132	0.0145	0.0155
in n-octane	8.1e-05	0.00013	0.00016	0.00021	0.000302	0.000466	0.00068	0.000915
in n-octanol	0.00348	0.00423	0.00516	0.0066	0.00842	0.00947	0.0104	0.0116
in sec-butanol	0.000128	0.000229	0.000436	0.000784	0.00119	0.0017	0.00253	0.00366

C[C@]12CC[C@@H]3c4ccc(O)cc4CC[C@H]3[C@@H]1C[C@@H](O)[C@@H]2O
solubility (mole fraction)
Settings	293.2 K	298.2 K	303.2 K	308.2 K	313.2 K	318.2 K	323.2 K	328.2 K
in 2-aminoethanol	0.0111	0.0127	0.0148	0.018	0.0214	0.0254	0.0314	0.0363
in DMF	0.00112	0.00158	0.00258	0.00426	0.00581	0.00958	0.013	0.018
in NMP	0.000415	0.000677	0.00105	0.00174	0.00275	0.00364	0.00491	0.00718
in morpholine-4-carbaldehyde	6.2e-05	0.00023	0.000652	0.00147	0.00343	0.00495	0.00726	0.0107
in n-dodecane	0.00072	0.000779	0.00092	0.000956	0.00128	0.00179	0.00243	0.00285
in n-hexadecane	0.00114	0.00147	0.00175	0.00219	0.00251	0.00299	0.00335	0.00382
in n-nonanol	0.0074	0.00863	0.0104	0.0116	0.0131	0.0147	0.0168	0.0199
in n-octane	0.000621	0.000735	0.000873	0.00103	0.00123	0.00138	0.00152	0.00186
in n-octanol	0.00593	0.00678	0.00747	0.00868	0.0104	0.0121	0.0147	0.0171
in n-pentanol	0.00243	0.00285	0.00367	0.00468	0.00594	0.00809	0.00967	0.0121
in sec-butanol	0.00189	0.0025	0.0032	0.00403	0.00453	0.00533	0.00668	0.00812
in water	0.000115	0.000135	0.000168	0.000191	0.000306	0.000422	0.000577	0.000803
